Source: PubChem BioAssay (NCI)
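Where inhibition never reached the appropriate level, the endpoint shown equals the highest concentration tested. Otherwise, values were interpolated linearly from a five-concentration, 48-hour dose response in 96-well plates. Abbreviation: GI50, concentration required for 50% inhibition of growth. TGI: concentration producing complete growth inhibition.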

Tests used:
Assay in all cases: NCI-60 cell line screen, 48 h
A549 NSCLC = tested on: A549 NSCLC
EKVX NSCLC = tested on: EKVX NSCLC
HS 578T breast = tested on: HS 578T breast
IGROV1 ovarian = tested on: IGROV1 ovarian
MDA-MB-435 = tested on: MDA-MB-435
RXF 393 renal = tested on: RXF 393 renal
SF-268 CNS = tested on: SF-268 CNS
UACC-62 melanoma = tested on: UACC-62 melanoma

| Structure (SMILES) | TGI (A549 NSCLC) [µM] | TGI (EKVX NSCLC) [µM] | TGI (HS 578T breast) [µM] | TGI (IGROV1 ovarian) [µM] | TGI (MDA-MB-435) [µM] | TGI (RXF 393 renal) [µM] | TGI (SF-268 CNS) [µM] | TGI (UACC-62 melanoma) [µM] | GI50 (A549 NSCLC) [µM] | GI50 (EKVX NSCLC) [µM] | GI50 (HS 578T breast) [µM] | GI50 (IGROV1 ovarian) [µM] | GI50 (MDA-MB-435) [µM] | GI50 (RXF 393 renal) [µM] | GI50 (SF-268 CNS) [µM] | GI50 (UACC-62 melanoma) [µM] |
| --- | --- | --- | --- | --- | --- | --- | --- | --- | --- | --- | --- | --- | --- | --- | --- | --- |
| CCCC1c2c(ccc3ccccc23)Oc2ccc3ccccc3c21 | > 100 | > 100 | > 100 | > 100 | > 100 | > 100 | > 100 | > 100 | – | – | – | – | – | – | – | – |
| COc1cc(Nc2nc3cc(N)cc(N)c3nc2-c2ccccc2)cc(OC)c1 | > 100 | 64.4 | 63.8 | 17.1 | 23.8 | 18.8 | 55.8 | 23.3 | 20.1 | 13.3 | 10.9 | 2.7 | 11.5 | 3.15 | 5.59 | 7.33 |
| c1ccc(Cc2nc3ccc(Nc4ncnc5ccccc45)cc3[nH]2)cc1 | > 25 | > 25 | > 25 | > 25 | > 25 | > 25 | > 25 | > 25 | > 25 | 9.4 | > 25 | 16.2 | > 25 | > 25 | > 25 | > 25 |
| CSc1nc2c(c(=O)[nH]1)N=C1c3ccccc3C(=O)C1C(c1ccc(F)cc1)N2 (stereo not drawn) | > 100 | > 100 | 43.6 | > 100 | 8.76 | 36.6 | 49.9 | 48.9 | 12.6 | 18.2 | 5.85 | 11.3 | 1.65 | 14.5 | 12.7 | 3.04 |
| Oc1ccc(/C=N\Nc2ccccn2)c(O)c1 | > 100 | 7.46 | > 100 | 3.64 | > 100 | 53.4 | 6 | – | 2.51 | 1.4 | 4.99 | 0.638 | 1.37 | 2.24 | 0.494 | – |
| COP(=O)(OC)C(NC(c1ccccc1)c1ccccc1)c1ccc2c(c1)OCO2 (stereo not drawn) | > 100 | 92.6 | 59.9 | 73.6 | 94.8 | 50.1 | 91.8 | 32.2 | 27.3 | 31.4 | 27.4 | 22 | 33.3 | 23 | 29.2 | 16 |
| Cc1ccc(C(CN(C)C)C(=O)c2ccccc2)cc1 (stereo not drawn) | 38 | 23.1 | 33.6 | 11.5 | 8.92 | 7.52 | 13 | 4.33 | 16.7 | 4.63 | 4.7 | 3.62 | 2.45 | 2.56 | 3.13 | 1.85 |
| CCCC[C@H]1C(=O)O[C@H](C)[C@H](NC(=O)c2cccc(NC=O)c2O)C(=O)O[C@@H](C)[C@@H]1OC(=O)CC(C)C | 29.5 | 37.9 | 37.7 | 41.9 | 44.6 | 24.6 | 35.5 | 22.1 | – | – | – | – | – | – | – | – |
| COc1cc2oc(=O)ccc2cc1C1OC(=O)C2OC21C (stereo not drawn) | > 100 | > 100 | > 100 | > 100 | > 100 | > 100 | > 100 | > 100 | – | – | – | – | – | – | – | – |
| CC(C)(C)N1CCC1C(N)=O (stereo not drawn) | > 100 | > 100 | > 100 | > 100 | > 100 | > 100 | > 100 | > 100 | > 100 | > 100 | > 100 | > 100 | > 100 | > 100 | > 100 | > 100 |
| OCc1cn(Cc2cccc(Cl)c2)c2ccccc12 | 65.8 | 56.1 | 33.7 | 0.507 | 35.5 | 18 | 38.1 | 1.5 | 15 | 17.3 | 9.27 | < 0.0271 | 14.8 | 2.43 | 14 | < 0.0199 |
| Cc1cn(C2CC(F)C(CO)O2)c(=O)[nH]c1=O (stereo not drawn) | > 100 | > 100 | > 100 | > 100 | > 100 | > 100 | – | > 100 | > 100 | > 100 | > 100 | > 100 | > 100 | > 100 | – | > 100 |
| C[C@]12CCC3[C@@H](C[C@@H]4SC(Nc5ccccc5)=N[C@@]45CC(=O)CC[C@]35C)[C@@H]1CCC2=O (stereo partly drawn) | > 100 | > 100 | > 100 | > 100 | > 100 | 14.2 | 70 | 29.6 | 26.4 | 38.8 | 12 | 8.21 | 3.48 | 3.18 | 5.95 | 9.54 |
| Cc1ccc2c(c1)nc(C(=O)c1ccco1)c(C(F)(F)F)[n+]2[O-] | > 100 | > 100 | 5.76 | > 100 | > 100 | > 100 | > 100 | > 100 | > 100 | 57.5 | 2.33 | 48 | > 100 | > 100 | > 100 | 89.1 |
| CC1=C(/C=C/C(C)=C\C=C\C(C)=C\C(=O)Nc2ccc3c(c2)OCO3)C(C)(C)CCC1 | > 100 | > 100 | > 100 | > 100 | > 100 | > 100 | > 100 | > 100 | 84.8 | 62.3 | > 100 | > 100 | 16.7 | 24 | > 100 | > 100 |
| CN(C)CCCn1c2c(c3cnccc3c1=O)C(=O)c1ccccc1-2 | 3.86 | 16 | 7.53 | 3.75 | 2.48 | 2.05 | 7.24 | 1.46 | 0.676 | 2.33 | 1.04 | 0.411 | 0.49 | 0.396 | 0.62 | 0.309 |
